This series relates to MiaPaCa cells. Briefly: MiaPaCa orthotopic NOD-SCID mice model.
[1] abbreviates: mAb 5 mg/kg i.v., gemcitabine 50 mg/kg i.p.

Method: Specifically, experimental design of tumor growth inhibition in vivo. MiaPaCa cells (5×10^6) were injected into pancreas of NOD-SCID mice at Day 0. […] Mice were sacrificed on day 34. […] Since fibrosis and angiogenesis are two major issues during tumor progression, we compared the fibrosis and angiogenesis level within each groups.

Turning to `Nc1ccn([C@@H]2O[C@H](CO)[C@@H](O)C2(F)F)c(=O)n1` [gemcitabine, reference compound], the “level of CHI3L1 in intratumoral region and plasma” value (end of experiment) is “lower than IgG control group”. For the same compound, under setting [1], the “angiogenesis indicated by CD31 expression” value was “decreased in every treatment groups” and the body weight result was “without significant weight loss”. Besides, under “mAb 5 mg/kg i.v., gemcitabine 50 mg/kg i.p., Day 7, 14, 21, 28, sacrificed day 34”, the tumor size result is given as “smaller than IgG control group”.

The values above are taken from patent US20240400717A1, “Antibody Binding to CHI3L1 for Treating Cancer” (National Cheng Kung University, priority 2021, published 2024).
